Literature values in US12545694B2, “Cannabidiol derivatives, preparation method thereof and use thereof” (CHENGDU BAIYU PHARMACEUTICAL CO., LTD., priority 2020, dated 2026).

Settings: human

## C=C(C)[C@@H]1CCC(C)=C[C@H]1c1c(O)cc(CCCCC)cc1O [CBD, cannabidiol]
  oral bioavailability: about 6%
